In patent publication EP1383793B1 (priority 2000, dated 2001):
Positions of bridges follow the written chain, without caps; N, C: chain ends. Residues, ends and D or L forms follow the SMILES beside them. No end group written: not given here. *: point of attachment. Biotin = O=C1N[C@H]2[C@H](CS[C@H]2CCCCC(=O)*)N1

How the values were obtained:
[1] = test system: adipocytes; assay: 3H-glucose uptake into adipocytes (fat cell assay, FFC); format: cell-based, Mouse; parameters: key to Resp.: -2 (antagonist); +2 (agonist); details: for ED50: Estimated, not calculated values; for Resp.: Subjective ranking, basal and sub maximal insulin, includes series A
[2] = biological target: T1, IR (Homo sapiens, UniProt P06213); assay: Phage ELISA, competition of phage binding by soluble synthetic peptides, IR-coated wells; details: Insulin Receptor
T1 construct: composed of the extracellular domains of both the α and β chains of the natural receptor; made in house; background b13 names human embryonic kidney 293 cells for the Bass et al. construct
T1 sequence (P06213 28-758 limits assumed): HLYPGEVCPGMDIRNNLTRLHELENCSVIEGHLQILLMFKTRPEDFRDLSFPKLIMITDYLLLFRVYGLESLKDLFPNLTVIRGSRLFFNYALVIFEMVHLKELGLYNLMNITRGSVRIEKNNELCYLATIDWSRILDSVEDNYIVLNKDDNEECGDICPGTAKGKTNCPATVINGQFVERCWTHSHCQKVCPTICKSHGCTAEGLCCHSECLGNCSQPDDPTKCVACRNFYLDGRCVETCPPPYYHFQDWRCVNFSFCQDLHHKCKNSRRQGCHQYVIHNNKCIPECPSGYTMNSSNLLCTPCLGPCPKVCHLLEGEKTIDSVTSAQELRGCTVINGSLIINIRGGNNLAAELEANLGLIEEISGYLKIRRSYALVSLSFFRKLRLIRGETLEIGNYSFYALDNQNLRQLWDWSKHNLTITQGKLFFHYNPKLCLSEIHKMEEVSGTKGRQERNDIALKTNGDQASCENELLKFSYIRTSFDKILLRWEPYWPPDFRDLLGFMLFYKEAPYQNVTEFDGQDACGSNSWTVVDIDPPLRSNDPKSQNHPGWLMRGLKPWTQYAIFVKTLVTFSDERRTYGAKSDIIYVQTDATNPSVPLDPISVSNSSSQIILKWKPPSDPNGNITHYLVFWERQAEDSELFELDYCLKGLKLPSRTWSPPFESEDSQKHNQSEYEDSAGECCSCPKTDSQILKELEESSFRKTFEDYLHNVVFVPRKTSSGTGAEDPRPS
T1 sequence (P06213 763-956 limits assumed): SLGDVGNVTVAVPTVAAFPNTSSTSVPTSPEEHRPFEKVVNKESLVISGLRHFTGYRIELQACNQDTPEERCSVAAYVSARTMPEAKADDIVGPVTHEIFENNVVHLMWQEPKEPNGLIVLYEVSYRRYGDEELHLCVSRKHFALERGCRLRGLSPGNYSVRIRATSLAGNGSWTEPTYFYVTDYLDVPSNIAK
Procedure: (§1) Peptide Competition. […] Twenty microliters of the stock synthetic-peptide solution was added to Row A. A series of 20 µl into 100 µl dilutions were performed until Row G. Twenty microliters were discarded from Row G to maintain 100 µl per well. Row H was reserved as no peptide wells. […] The volume was maintained by the addition of 18 µl of the phage solution to Row A.
(§2) Phage ELISA. […] The wells were blocked with 200 µl of 2% (w/v) Carnation non-fat dry milk in PBS for 1.5 h at RT. Phage were added at 100 µl per well. Peptides were added as noted below and allowed to incubate at RT for 3 h. The plates were washed 3X with PBST. A solution of 1:3000 diluted HRP:Anti-M13 Conjugate at 100 µl per well of was added for 1 h. Following a repeat of the washing, 100 µl of ABTS was added for 15-30 min. The OD405 was measured using a SpectraMax 340 Microplate Spectrophotometer.
(§3) Peptide Competition. Peptide Competition Curves were produced during the phage ELISA across rows in triplicate. The stock synthetic peptide solution was added to Column 12 so that the total volume totaled 150 µl (additional phage solution was added when necessary). A serial dilution was made by transferring 50 µl from Column 12 into 100 µl in Column 11, 50 µl from Column 11 into 100 µl in Column 10, and continuing the serial dilution until Column 2. Fifty microliters were discarded from Column 2 to maintain 100 µl per well. Column 1 was reserved as no peptide wells.
(§4) A p53-like peptide that binds to MDM2 was used as a negative control.

[3] = biological target: T2, IGF-1R (Homo sapiens, UniProt P08069); assay: Phage ELISA, competition of phage binding by soluble synthetic peptides, IGF-1R-coated wells; details: IGF Receptor
T2 construct: Soluble IGF-1R was obtained from R&D Systems; purchased R&D Systems 391-GR/CF
T2 sequence (P08069 31-736 limits assumed): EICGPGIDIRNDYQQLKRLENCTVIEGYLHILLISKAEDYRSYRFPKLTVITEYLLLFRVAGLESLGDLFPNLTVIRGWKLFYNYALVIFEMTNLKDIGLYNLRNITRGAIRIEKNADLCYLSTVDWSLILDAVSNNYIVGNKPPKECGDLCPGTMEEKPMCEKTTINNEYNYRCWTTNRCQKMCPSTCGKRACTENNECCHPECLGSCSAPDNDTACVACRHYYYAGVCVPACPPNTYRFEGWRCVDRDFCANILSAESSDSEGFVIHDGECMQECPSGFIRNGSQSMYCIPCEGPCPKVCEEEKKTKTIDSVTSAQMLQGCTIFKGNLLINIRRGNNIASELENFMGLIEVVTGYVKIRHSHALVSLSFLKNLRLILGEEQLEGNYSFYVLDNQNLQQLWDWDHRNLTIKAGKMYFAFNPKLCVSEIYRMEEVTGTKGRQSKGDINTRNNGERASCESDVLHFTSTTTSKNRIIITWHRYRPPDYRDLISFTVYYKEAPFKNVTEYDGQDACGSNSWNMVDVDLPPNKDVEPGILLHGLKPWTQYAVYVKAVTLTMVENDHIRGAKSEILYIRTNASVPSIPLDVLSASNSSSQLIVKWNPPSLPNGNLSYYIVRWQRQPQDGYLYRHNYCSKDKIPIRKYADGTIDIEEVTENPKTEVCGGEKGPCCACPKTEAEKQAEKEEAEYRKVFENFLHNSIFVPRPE
T2 sequence (P08069 741-935 limits assumed): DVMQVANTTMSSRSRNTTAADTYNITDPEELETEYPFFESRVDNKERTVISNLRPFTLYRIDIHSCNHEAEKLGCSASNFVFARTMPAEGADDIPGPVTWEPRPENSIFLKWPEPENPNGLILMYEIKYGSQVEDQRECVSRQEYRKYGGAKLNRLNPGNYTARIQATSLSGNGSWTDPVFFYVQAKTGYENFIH
Procedure: as §1, §2, §3, §4

[4] = biological target: T3, Insulin receptor (Homo sapiens, UniProt P06213); assay: Heterogeneous time-resolved fluorescence assay (TRFA) on insulin receptor; format: binding
T3 construct: composed of the extracellular domains of both the α and β chains of the natural receptor; made in house; background b13 names human embryonic kidney 293 cells for the Bass et al. construct
T3 sequence (P06213 28-758 limits assumed): as the sequence (P06213 28-758 limits assumed) above
T3 sequence (P06213 763-956 limits assumed): as the sequence (P06213 763-956 limits assumed) above
Procedure: In this assay, saEu forms a ternary complex with bP and IR (i.e., IR:bP:saEu complex). The TRFD assay format is well established, sensitive, and quantitative (Tompkins et al., 1993). The assay can use a single-chain antibody or a biotinylated peptide.
In these assays, soluble IR is coated on the surface of microtiter wells, blocked by a solution of 0.5% BSA and 2% non-fat milk in PBS, and then incubated with biotinylated peptide or rVab. Unbound bP is then washed away and saEu is added to complex with receptor-bound bP. Upon addition of the acidic enhancement solution, the bound europium is released as free Eu^3+ which rapidly forms a highly fluorescent and stable complex with components of the enhancement solution. The IR:bP bound saEu is then converted into its highly fluorescent state and detected by a detector such as Wallac Victor II (EG&G Wallac, Inc.)
• a. Heterogeneous Time-Resolved Fluorescence Assay. […] The plates were blocked with TBS containing 2% milk and 0.5% BSA for 1 h at RT followed by three TBS washes. […] After TBS wash, europium-labeled streptavidin at 1 µg/ml in assay buffer (100 mM Tris-HCl, pH 7.8; 150 mM NaCl; 0.5% BSA; 0.05% bovine Ig; 0.05% NaN3; 0.01% Tween-20) was added to the plates and incubated for 1 h. To test binding of rVab antibodies to IR, Eu-labeled rVab antibodies in assay buffer were added to the plates and incubated for 2 h to overnight. After incubation with Eu-labeled streptavidin (for peptide test) or europium-labeled rVabs, the plates were washed 5 times with Tris-buffered saline (pH 7.5) containing 0.1 % Tween-20 (TTBS) and tapped dry. Sixty microliters of EG&G Wallac enhancement solution (100 mM acetone-potassium hydrogen pthalate, pH 3.2; […] 2-naphtyltrifluoroacetate; […] tri(n-octyl)-phosphine oxide; 0.1 % Triton X-100) was added into each well, and the plates were placed onto a shaker for 20 min at RT. […] Homogeneous Time-Resolved Fluorescence Assay. […] For library screening, 20 µM of small organic molecules in 2 % DMSO are included in the mixture.

[5] = Precipitate in diluted peptide stock prior to adding to the fat cell assay; solubility under assay conditions; format: physicochemical
[6] = biological target: human IGF-1 receptor (HIGF-1R) (Homo sapiens, UniProt P08069); assay: 125I-IGF-1 competition binding assay on solubilised purified receptor; details: Kd HIGF1R / Kd HIR
Sequence of human IGF-1 receptor (HIGF-1R) (P08069 31-736 limits assumed): as the sequence (P08069 31-736 limits assumed) above
Sequence of human IGF-1 receptor (HIGF-1R) (P08069 741-1367 limits assumed): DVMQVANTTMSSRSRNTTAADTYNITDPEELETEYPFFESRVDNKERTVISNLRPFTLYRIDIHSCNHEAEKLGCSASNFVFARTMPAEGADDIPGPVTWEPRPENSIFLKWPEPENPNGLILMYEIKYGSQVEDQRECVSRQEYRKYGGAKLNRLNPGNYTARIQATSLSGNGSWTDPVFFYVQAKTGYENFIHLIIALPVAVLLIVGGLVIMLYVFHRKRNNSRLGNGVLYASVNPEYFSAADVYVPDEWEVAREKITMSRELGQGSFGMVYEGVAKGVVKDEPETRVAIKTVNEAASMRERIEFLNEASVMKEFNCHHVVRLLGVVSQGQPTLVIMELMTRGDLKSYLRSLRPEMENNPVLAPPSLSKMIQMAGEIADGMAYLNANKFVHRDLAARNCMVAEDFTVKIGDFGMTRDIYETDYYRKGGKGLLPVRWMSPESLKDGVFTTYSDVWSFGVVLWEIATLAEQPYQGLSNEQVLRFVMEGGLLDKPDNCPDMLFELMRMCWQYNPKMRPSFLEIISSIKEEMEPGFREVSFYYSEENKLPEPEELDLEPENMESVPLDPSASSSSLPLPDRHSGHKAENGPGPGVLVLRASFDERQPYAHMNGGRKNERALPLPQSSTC

[7] = test system: FDCP2 cells (NIH) which express IGF-1R; assay: FDCP2 cell proliferation (WST-1), agonism; format: cell-based; details: not against IGF-1 R- cells
Procedure: Agonistic and antagonistic activities of the IGF-1-specific peptides were tested in FDCP2 cells (NIH) which express IGF-1R. […] Agonism activity assays were performed in a total volume of 100 µl in 96 well plates (flat bottom).
Proliferation assays were performed using WST-1 reagent. The WST-1 tetrazolium salt (slightly red) is cleaved to formazan (dark red) by the succinate-tetrazolium reductase system, which is active only in viable cells. An increase in the number of cells results in an increase in the overall activity of the dehydrogenase which results in a higher absorbance at 450 nm. […] Proliferation was measured by absorbance at 450 nm.

[8] = biological target: T2, IGF-1R; assay: Phage ELISA, binding of phage-displayed peptides to IGF-1R; details: 405 nm
Procedure: Figures 1A-10G. Amino acid sequences comprising the motif of Formulas 1 through 10. […] One hundred microliters of this solution was added to an appropriate number of wells in a 96-well microtiter plate (MaxiSorp plates, Nunc) and incubated overnight at 4°C. […] Subsequent steps are the same for pooled and clonal phage. […] Phage resuspended in MPBS were added to duplicate wells (100 µl/well) and incubated at RT for 1 h. […] Incubation was for 1 h at RT, followed by PBS washes as described. […] Phage ELISA. […] The wells were blocked with 200 µl of MPBS for 1.5 h at RT. Phage were added at 100 µl per well. Peptides were added as noted below and allowed to incubate at RT for 3 h. The plates were washed 3 times with PBST. A solution of 1:3000 diluted HRP:Anti-M13 conjugate at 100 µl per well of was added for 1 h. Following a repeat of the washing, 100 µl of ABTS was added for 15-30 min. […] Phage ELISA. […] Phage were added at 100 µl per well. Peptides were added as noted below and allowed to incubate at RT for 3 h. The plates were washed 3X with PBST. A solution of 1:3000 diluted HRP:Anti-M13 Conjugate at 100 µl per well of was added for 1 h. Following a repeat of the washing, 100 µl of ABTS was added for 15-30 min. The OD405 was measured using a SpectraMax 340 Microplate Spectrophotometer.

[9] = biological target: T1, IR; assay: Phage ELISA, binding of phage-displayed peptides to IR
Procedure: Amino acid sequences comprising the motif of Formulas 1 through 10. […] Fifty microliters of this solution was added to an appropriate number of wells in a 96-well microtiter plate (MaxiSorp plates, Nunc) and incubated overnight at 4°C. […] To isolate specific binders, each library was panned against a soluble form of the human IR. This IR is composed of the extracellular domains of both the α and β chains of the natural receptor, as well as the constant domain from immunoglobulin Fc, retaining the β-α-α-β structure described above. Because the IR is expressed in a eukaryotic system, disulfide bond formation and glycosylation patterns should mimic the wild-type receptor. The details of this recombinant protein construct are described in Bass et al. (1996). Phage ELISA. […] The wells were blocked with 200 µl of MPBS for 1.5 h at RT. […] Peptides were added as noted below and allowed to incubate at RT for 3 h. The plates were washed 3 times with PBST. A solution of 1:3000 diluted HRP:Anti-M13 conjugate at 100 µl per well of was added for 1 h. Following a repeat of the washing, 100 µl of ABTS was added for 15-30 min. […] Phage ELISA. […] Peptides were added as noted below and allowed to incubate at RT for 3 h. […] A solution of 1:3000 diluted HRP:Anti-M13 Conjugate at 100 µl per well of was added for 1 h. Following a repeat of the washing, 100 µl of ABTS was added for 15-30 min. The OD405 was measured using a SpectraMax 340 Microplate Spectrophotometer.

[10] = biological target: T4, purified insulin receptor (Homo sapiens, UniProt P06213); assay: Holoenzyme phosphorylation assay (IR autophosphorylation, Western blot); format: biochemical
T4 construct: host or cells: 'Wheat Germ Agglutinin Expression System' (so in the source)
T4 sequence (P06213 28-758 limits assumed): as the sequence (P06213 28-758 limits assumed) above
T4 sequence (P06213 763-1382 limits assumed): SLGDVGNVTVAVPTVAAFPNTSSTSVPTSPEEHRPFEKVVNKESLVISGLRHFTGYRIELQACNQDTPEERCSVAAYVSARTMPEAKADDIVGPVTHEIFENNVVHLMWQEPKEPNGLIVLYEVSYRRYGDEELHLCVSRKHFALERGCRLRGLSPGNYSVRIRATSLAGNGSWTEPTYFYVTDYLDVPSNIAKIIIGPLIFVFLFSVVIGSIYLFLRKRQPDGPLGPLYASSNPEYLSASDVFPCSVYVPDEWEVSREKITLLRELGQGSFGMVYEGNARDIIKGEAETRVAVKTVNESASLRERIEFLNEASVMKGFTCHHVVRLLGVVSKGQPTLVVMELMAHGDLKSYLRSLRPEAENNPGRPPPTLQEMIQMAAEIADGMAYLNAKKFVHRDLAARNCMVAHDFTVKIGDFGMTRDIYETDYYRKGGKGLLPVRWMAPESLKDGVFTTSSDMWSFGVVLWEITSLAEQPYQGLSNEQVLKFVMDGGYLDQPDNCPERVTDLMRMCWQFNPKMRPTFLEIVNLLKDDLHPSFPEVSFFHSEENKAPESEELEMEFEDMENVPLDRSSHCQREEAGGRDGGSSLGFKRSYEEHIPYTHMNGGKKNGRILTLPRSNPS
Procedure: Alternatively, IR autophosphorylation was determined using a holoenzyme phosphorylation assay. […] The reaction was stopped by adding 50 µl of gel loading buffer containing β-mercaptoethanol (Bio-Rad Laboratories, Inc., Hercules, CA). The samples were run on 4-12% SDS-polyacrylamide gels. Western Blot analysis was performed by transferring the proteins onto nitrocellulose membrane. The membrane was blocked in PBS containing 3% milk overnight. The membrane was incubated with anti-phosphotyrosine 4G10 HRP labeled antibody (Upstate Biotechnology) for 2 h. Protein bands were visualized using SuperSignal West Dura Extended Duration Substrate Chemiluminescence Detection System (Pierce Chemical Co.).

[11] = biological target: T3, Insulin receptor; assay: BIAcore competition: IR pre-incubated with test substance, injected over immobilised insulin; format: binding; details: peptide about 40 µM, IR 450 nM; IR alone 128 RU
Procedure: Flowcell-1 was used for background binding to correct for any non-specific binding. […] The surface was regenerated with 25 mM NaOH. […] Thus, the system was validated for competition studies. […] The amino acid sequences referred to in the tables are identified in Figures 47 and 48, except the 447 and 2A9 sequences, which are shown below. TABLE 9: BIAcore Results-Fusion Proteins Compete for Binding to IR

[12] = biological target: T2, IGF-1R; assay: Competitive phage ELISA with IGF-1 on IGF-1R; format: binding
Procedure: For IC50 determinations in a competitive ELISA, microtiter plates were coated with IGF-1R and blocked as described. Phage were prepared as described. Prior to addition of phage to plates, the peptide or recombinant variable antibody or fragment ("rVab"), or an appropriate control, was diluted in PBS and added to duplicate wells (100 µl/well). After incubation for 1 h at RT, the prepared phage were added to each well (100 µl/well) without removing the peptide or rVab solution. After incubation for 1 h at RT, the wells were washed and the color developed as described above.
The clones were next analyzed for binding to the receptor's active site (Figures 20A and 20B).
For IC50 determinations, microtiter plates were coated with IGF-1R and blocked as described. Phage and soluble rVabs were prepared as described above. […] After incubation for 1 h at RT, the wells were washed and the color was developed as described above.

FHENFYDWFVRQVSKK [Clone H2C]
Comments (dose response, effect at basal insulin) [1]: Some response at basal insulin
ED50 [1]: Approx 20 µM
Resp. [1]: +2
ED50 in the effect assay (FFC) ([1]; best peptides, agonists): 20 to 30 µM
n (Hill plot) ([2]; 20D3 Phage): 1.03
n (Hill plot) ([2]; H2 Phage): 0.62
n (Hill plot) ([3]; 20D3 Phage): 0.81
n (Hill plot) ([3]; H2 Phage): 1.02
binding of rVab 12H10 to IR ([4]; peptide at 30 µM): 40-50 % of control
Comments (precipitation) ([5]; diluted stock prior to adding to assay): Precipitates
Comments (soluble under assay conditions) ([5]; under assay conditions, no ppt in microscope, low magnification): ≥ 20 µM
Ratio [6]: 8.6

LCQRLGVGWPGWLSGWCA [Clone H5]
activity toward IGF-1 R+ cells in cell culture [7]: agonistic activity

CC[C@H](C)[C@H](NC(=O)[C@H](CCC(=O)O)NC(=O)[C@@H](N)CCCCN)C(=O)N[C@@H](CCC(=O)O)C(=O)N[C@@H](C)C(=O)N[C@@H](CCC(=O)O)C(=O)N[C@@H](Cc1c[nH]c2ccccc12)C(=O)NCC(=O)N[C@@H](CCCNC(=N)N)C(=O)N[C@H](C(=O)N[C@@H](CCCNC(=N)N)C(=O)N[C@H]1CSSC[C@@H](C(=O)N[C@H](C(=O)NCC(=O)NCC(=O)N[C@@H](CCCCN)C(=O)N[C@@H](CCCCNC(=O)CCCC[C@@H]2SC[C@@H]3NC(=O)N[C@@H]32)C(N)=O)C(C)C)NC(=O)[C@H](CCCNC(=N)N)NC(=O)CNC(=O)[C@H](Cc2ccc(O)cc2)NC(=O)[C@H](C(C)C)NC(=O)[C@H](CC(C)C)NC1=O)C(C)C [Clone 20A4] (H-KEIEAEWGRVRCLVYGRCVGGKK(Biotin)-NH2; disulfide 12-18 (inferred); N-terminus assumed)
Absorbance Values sIGF-1R [8]: 0.21
Absorbance Values IR ([9]; 405 nm): 1.61
Resp. [1]: -1
Autophosph. Blot [10]: 0
Result (RUs) [11]: 41.8 RUs

CC[C@H](C)[C@@H]1NC(=O)[C@H](CCCNC(=N)N)NC(=O)[C@H](C(C)C)NC(=O)CNC(=O)[C@H](Cc2c[nH]c3ccccc23)NC(=O)[C@H](CO)NC(=O)[C@H](CCC(N)=O)NC(=O)[C@@H](NC(=O)[C@H](CC(C)C)NC(=O)[C@H](CC(=O)O)NC(=O)[C@H](CCCCN)NC(=O)[C@H](Cc2ccc(O)cc2)NC(=O)[C@@H](N)CC(=O)O)CSSC[C@@H](C(=O)N2CCC[C@H]2C(=O)N[C@@H](CCCCN)C(=O)N[C@@H](CCCCNC(=O)CCCC[C@@H]2SC[C@@H]3NC(=O)N[C@@H]32)C(N)=O)NC(=O)[C@H](CC(C)C)NC(=O)CNC(=O)[C@H](C)NC(=O)[C@H](CC(C)C)NC(=O)[C@H](Cc2c[nH]c3ccccc23)NC(=O)CNC1=O [JBA5] (H-DYKDLCQSWGVRIGWLAGLCPKK(Biotin)-NH2; disulfide 6-20 (inferred); N-terminus assumed)
binding to IR when expressed as phage [9]: do not have detectable binding
Comments (dose response, effect at basal insulin) [1]: Slight effect at basal insulin
ED50 [1]: > 20 µM
Resp. [1]: +2
Autophosph. Blot [10]: 0
Ratio [6]: 1.8

WNTVDPFYHKLSELLREKK [Clone B6]
binding to IR when expressed as phage [9]: do not have detectable binding
inhibition of phage binding to immobilized IGF-1R by IGF-1 [12]: could be inhibited with IGF-1
competition with binding of 12H10 to IR [4]: do not compete
